Patent US11844755B2, “Compounds and their use as therapeutically active substances in the treatment and/or reducing signs or symptoms of diseases involving the retinal pigment epithelium” (ENDOGENA THERAPEUTICS, INC., priority 2020, dated 2023)

Key:
[1] = system: iPSC-fRPE cells; experiment: RPE pigmentation screen (light absorbance at 510 nm); format: cell-based, human; conditions: test compound 5 μM in 0.1% DMSO, 32 days, relative to plate internal DMSO controls (control = 1); for fold induction at 5 µM: Homo sapiens, 768 h
Experimental: (§1) Induced pluripotent stem cell-derived fetal RPE (iPSC-fRPE) cells acquired from the University of California, Santa Barbara, were generated from human fetal RPE cells that were isolated and reprogramed to iPSC, then differentiated and sorted for cellular markers to collect RPE progenitors. Vials were transported frozen on dry ice and stored in −80° C.
(§2) For the phenotypic screens, iPSC-fRPE cells were thawed and cultured in Matrigel-coated flasks with N1VA media containing 1XMEM solution supplemented with 2.2 g/L Sodium Bicarbonate, 0.25 mg/ml Taurine, 0.02 ug/ml Hydrocortisone, 0.013 ug/ml Triiodo Thyronine, 0.1 ug/ml Lipoic acid, 1% MEM Non-Essential Amino Acids, 1% Penicilin/Streptomycin, 2% Neurocult SM1 supplement and 1% N1 supplement. For the initial cultures, Thiazovivin was added to the media at 2 μM for the first 24 hr of incubation, after which the media was replaced with fresh N1VA media for additional three-day incubation at 37° C. with 5% CO2.
(§3) iPSC-fRPE cells were plated with N1VA media at a density of 10,000 cells per well in Matrigel-coated 96-well plates and cultured for 24 h prior to the treatment with test compounds at a final concentration of 5 μM in 0.1% DMSO. Internal controls for each test plate were (a) 0.1% DMSO as a negative control and (b) 0.1% DMSO+10 ng/ml human recombinant bFGF (STEMCELL) as a positive control.
To identify compounds that promote RPE pigmentation, cells were maintained for a period of 32 days and treated with medium containing the test or control compounds according to the media exchange regimen (FIG. 1). The degree of pigmentation was quantified by measuring the light absorbance at 510 nm with Cytation5 imaging reader (BIOTEK). Pigmentation values are finally reported relative to plate internal DMSO controls.

[2] = system: iPSC-fRPE cells; experiment: RPE cell proliferation (Hoechst 33342 live cell number); format: cell-based, human; conditions: test compound 5 μM in 0.1% DMSO, fixed at Day 5, Hoechst 33342 cell number, relative to plate internal DMSO controls (control = 1); for fold induction at 5 µM: Homo sapiens, RPE, 120 h, read-out: Relative Growth
Experimental: as §1, §2, §3
To assess proliferation of RPE cells, a replicate of compound-treated RPE cells were fixed at Day 5 and stained with Hoechst 33342 to determine live cell number with fluorescent microscopy. Cell numbers are reported relative to plate internal DMSO controls.

Row | Compound | Relative Pigmentation [1] | Relative Growth [2] | fold induction at 5 µM [1] | fold induction at 5 µM [2]
1 | 2-(chroman-3-yl)-6-(oxazol-5-yl)benzo[d]oxazole [Compound 10] | 1.71 | 1.12 |  | 
2 | 2-(chroman-3-yl)-6-(oxazol-5-yl)benzo[d]oxazole [Compound 11] | 6.24 | 1.42 |  | 
3 | c1ccc2c(c1)CC(c1nc3ccc(-c4cnco4)cc3[nH]1)O2 (racemic) [Compound 3, 2-(2,3-dihydro-1-benzofuran-2-yl)-6-(1,3-oxazol-5-yl)-1H-1,3-benzodiazole] |  |  | 2.77 | 1.36
4 | Fc1ccc2c(c1)OCC(c1nc3ccc(-c4cnco4)cc3[nH]1)C2 (racemic) [Compound 4, 2-(7-fluoro-3,4-dihydro-2H-1-benzopyran-3-yl)-6-(1,3-oxazol-5-yl)-1H-1,3-benzodiazole] |  |  | 5.08 | 1.78
5 | Clc1ccc2c(c1)CC(c1nc3ccc(-c4cnco4)cc3[nH]1)CO2 (racemic) [Compound 5, 2-(6-chloro-3,4-dihydro-2H-1-benzopyran-3-yl)-6-(1,3-oxazol-5-yl)-1H-1,3-benzodiazole] |  |  | 1.04 | 1.52
6 | Fc1cc(F)c2c(c1)CC(c1nc3ccc(-c4cnco4)cc3[nH]1)CO2 (racemic) [Compound 6, 2-(6,8-difluoro-3,4-dihydro-2H-1-benzopyran-3-yl)-6-(1,3-oxazol-5-yl)-1H-1,3-benzodiazole] |  |  | 2.3 | 1.42
7 | Fc1cc(-c2cnco2)cc2[nH]c(C3COc4ccccc4C3)nc12 (racemic) [Compound 8, 2-(3,4-dihydro-2H-1-benzopyran-3-yl)-7-fluoro-5-(1,3-oxazool-5-yl)-1H-1,3-benzodiazole] |  |  | 2.75 | 1.49
8 | Fc1c(-c2cnco2)ccc2nc(C3COc4ccccc4C3)[nH]c12 (racemic) [Compound 9, 2-(3,4-dihydro-2H-1-benzopyran-3-yl)-4-fluoro-5-(1,3-oxazol-5-yl)-1H-1,3-benzodiazole] |  |  | 4.27 | 1.13
9 | c1ccc2c(c1)C[C@H](c1nc3ccc(-c4cnco4)cc3[nH]1)CO2 [Compound 1, (R)-5-(2-(chroman-3-yl)-1H-benzo[d]imidazol-6-yl)oxazole] |  |  | 4.98 | 1.7
10 | c1ccc2c(c1)C[C@@H](c1nc3ccc(-c4cnco4)cc3[nH]1)CO2 [Compound 2, (S)-5-(2-(chroman-3-yl)-1H-benzo[d]imidazol-6-yl)oxazole] |  |  | 1.59 | 1.25
11 | c1ccc2c(c1)CC(c1nc3ccc(-c4cnco4)cc3[nH]1)C2 [Compound 7, 2-(2,3-dihydro-1H-inden-2-yl)-6-(1,3-oxazolyl)-1H-1,3-benzodiazole] |  |  | 2.36 | 1.34
